Tested on: Candida parapsilosis, Candida krusei, Candida albicans, Candida auris, Candida glabrata, Candida guilliermondii, and Cryptococcus neoformans
Experiment: Anti-fungal MIC assay, summary of second round
Assay type: cell-based
Settings: Candida strains
Protocol: The first round of testing included Candida parapsilosis, Candida krusei, Paecilomyces variotii, Candida albicans, Aspergillus fumigatus, and Blastomyces dermatitidis. […] The second round of testing included Candida parapsilosis, Candida krusei, Candida albicans, Candida auris, Candida glabrata, Candida guilliermondii, and Cryptococcus neoformans.
Stock solutions of the investigational agent were prepared at concentrations 100-times the highest concentration to be tested (6400 μg/ml) using dimethyl sulfoxide. Aliquots of the stock solutions were dispensed into polystyrene vials and stored at −20° C.
The synthetic medium RPMI-1640 (with glutamine, without bicarbonate, and with phenol red) was used. The RPMI was buffered to a pH of 7.0+0.1 at 25° C. with 0.165M MOPS (3-[N-morpholino] propanesulfonic acid). Sterile U-shaped 96-well cell culture plates were used to perform the MIC assays. […]
Fungal isolates were grown on Sabouraud dextrose agar (yeasts) or potato flake agar (filamentous fungi) and cells were collected after an appropriate period of growth for each species being evaluated (e.g., 48-72 hours for yeasts and 7 days for filamentous fungi). The fungi were suspended in sterile distilled water, and the densities of the fungal suspension were read using a spectrophotometer and adjusted to an appropriate optical density specific for each fungal species. […]

## N=C(N)c1ccc(CC[C@H]2CCC[C@@H](CCc3ccc(C(=N)N)cc3)C2)cc1 [Compound 3, 4,4′-(2,2′-((1R,3S)-cyclohexane-1,3-diyl)bis(ethane-2,1-diyl))dibenzimidamide]
  anti-fungal effectiveness compared to fluconazole: more effective in killing several Candida strains of interest that are not affected by fluconazole

Source: US20230391727A1, “ANALOGUES OF PENTAMIDINE AND METHODS FOR TREATING INFECTIONS” (Auransa Inc., priority 2020, published 2023)
